Assay results reported in ChEMBL document CHEMBL1201862, “PubChem BioAssay data set” (2004).
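In this assay, cells in 96-well plates receive the compound at five concentrations for 48 hours. Endpoints are linearly interpolated between the surrounding concentrations. Abbreviation: GI50, concentration required for 50% inhibition of growth.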 Activity calls are given as the source filed them. No stated cut-off is given here; in the data, active = GI50 up to about 1.1 µM and inactive = higher.

Columns and labels:
Assay in all cases: DTP human tumour cell line panel, 48 h
OVCAR-8 = tested on: OVCAR-8
SN12C = tested on: SN12C
TK-10 = tested on: TK-10
NCI-H23 = tested on: NCI-H23
SNB-75 = tested on: SNB-75
IGROV-1 = tested on: IGROV-1
SR = tested on: SR
HCC 2998 = tested on: HCC 2998
M14 = tested on: M14
UO-31 = tested on: UO-31
LOX IMVI = tested on: LOX IMVI
Hs-578T = tested on: Hs-578T
SNB-19 = tested on: SNB-19
NCI/ADR-RES = tested on: NCI/ADR-RES
SK-OV-3 = tested on: SK-OV-3
RPMI-8226 = tested on: RPMI-8226
ACHN = tested on: ACHN
EKVX = tested on: EKVX
SF-268 = tested on: SF-268
HCT-15 = tested on: HCT-15
OVCAR-5 = tested on: OVCAR-5
HT-29 = tested on: HT-29
786-0 = tested on: 786-0
HOP-92 = tested on: HOP-92
SW-620 = tested on: SW-620
SK-MEL-28 = tested on: SK-MEL-28
UACC-62 = tested on: UACC-62
NCI-H460 = tested on: NCI-H460
T47D = tested on: T47D
MCF7 = tested on: MCF7
K562 = tested on: K562
MDA-MB-231 = tested on: MDA-MB-231
CAKI-1 = tested on: CAKI-1
PC-3 = tested on: PC-3
OVCAR-4 = tested on: OVCAR-4
BT-549 = tested on: BT-549
COLO 205 = tested on: COLO 205
UACC-257 = tested on: UACC-257
A498 = tested on: A498
HL-60 = tested on: HL-60
HCT-116 = tested on: HCT-116
OVCAR-3 = tested on: OVCAR-3
Malme-3M = tested on: Malme-3M
MDA-MB-435 = tested on: MDA-MB-435
U-251 = tested on: U-251
SK-MEL-2 = tested on: SK-MEL-2
NCI-H522 = tested on: NCI-H522
DU-145 = tested on: DU-145
SF-539 = tested on: SF-539
HOP-62 = tested on: HOP-62
SK-MEL-5 = tested on: SK-MEL-5
NCI-H226 = tested on: NCI-H226
KM12 = tested on: KM12
SF-295 = tested on: SF-295
A549 = tested on: A549
MOLT-4 = tested on: MOLT-4
RXF 393 = tested on: RXF 393
CCRF-CEM = tested on: CCRF-CEM

Brc1ccc2nc(-c3cccs3)nc(N3CCN(c4ccccc4)CC3)c2c1
GI50 (OVCAR-8): > 100 µM (inactive)
GI50 (SN12C): > 100 µM (inactive)
GI50 (TK-10): > 100 µM (inactive)
GI50 (NCI-H23): > 100 µM (inactive)
GI50 (SNB-75): > 100 µM (inactive)
GI50 (IGROV-1): > 100 µM (inactive)
GI50 (SR): > 100 µM (inactive)
GI50 (HCC 2998): > 100 µM (inactive)
GI50 (M14): > 100 µM (inactive)
GI50 (UO-31): > 100 µM (inactive)
GI50 (LOX IMVI): > 100 µM (inactive)
GI50 (Hs-578T): > 100 µM (inactive)
GI50 (SNB-19): > 100 µM (inactive)
GI50 (NCI/ADR-RES): > 100 µM (inactive)
GI50 (SK-OV-3): > 100 µM (inactive)
GI50 (RPMI-8226): > 100 µM (inactive)
GI50 (ACHN): > 100 µM (inactive)
GI50 (EKVX): > 100 µM (inactive)
GI50 (SF-268): > 100 µM (inactive)
GI50 (HCT-15): > 100 µM
GI50 (OVCAR-5): > 100 µM (inactive)
GI50 (HT-29): > 100 µM (inactive)
GI50 (786-0): > 100 µM (inactive)
GI50 (HOP-92): > 100 µM (inactive)
GI50 (SW-620): > 100 µM (inactive)
GI50 (SK-MEL-28): > 100 µM (inactive)
GI50 (UACC-62): > 100 µM (inactive)
GI50 (NCI-H460): > 100 µM (inactive)
GI50 (T47D): > 100 µM (inactive)
GI50 (MCF7): > 100 µM (inactive)
GI50 (K562): > 100 µM (inactive)
GI50 (MDA-MB-231): > 100 µM (inactive)
GI50 (CAKI-1): > 100 µM (inactive)
GI50 (PC-3): > 100 µM (inactive)
GI50 (OVCAR-4): > 100 µM (inactive)
GI50 (BT-549): > 100 µM (inactive)
GI50 (COLO 205): > 100 µM (inactive)
GI50 (UACC-257): > 100 µM (inactive)
GI50 (A498): > 100 µM (inactive)
GI50 (HL-60): > 100 µM (inactive)
GI50 (HCT-116): > 100 µM (inactive)
GI50 (OVCAR-3): > 100 µM (inactive)
GI50 (Malme-3M): > 100 µM (inactive)
GI50 (MDA-MB-435): > 100 µM (inactive)
GI50 (U-251): > 100 µM (inactive)
GI50 (SK-MEL-2): > 100 µM (inactive)
GI50 (NCI-H522): > 100 µM (inactive)
GI50 (DU-145): > 100 µM (inactive)
GI50 (SF-539): > 100 µM (inactive)
GI50 (HOP-62): > 100 µM (inactive)
GI50 (SK-MEL-5): > 100 µM (inactive)
GI50 (NCI-H226): > 100 µM (inactive)
GI50 (KM12): > 100 µM (inactive)
GI50 (SF-295): > 100 µM (inactive)
GI50 (A549): > 100 µM (inactive)

C(=C\c1cc[n+](CCc2ccccc2)cc1)/c1ccccc1
GI50 (OVCAR-8): 3.86 µM (inactive)
GI50 (SN12C): 4.02 µM (inactive)
GI50 (TK-10): 21.5 µM (inactive)
GI50 (NCI-H23): 12.5 µM (inactive)
GI50 (SNB-75): 24 µM (inactive)
GI50 (IGROV-1): 31.7 µM (inactive)
GI50 (M14): 7.91 µM (inactive)
GI50 (UO-31): > 100 µM (inactive)
GI50 (LOX IMVI): 17.5 µM (inactive)
GI50 (Hs-578T): 15.2 µM (inactive)
GI50 (SNB-19): 12.7 µM (inactive)
GI50 (NCI/ADR-RES): > 100 µM (inactive)
GI50 (SK-OV-3): 18.6 µM (inactive)
GI50 (RPMI-8226): 5.45 µM (inactive)
GI50 (ACHN): 26.9 µM (inactive)
GI50 (EKVX): 56.9 µM (inactive)
GI50 (SF-268): 18.1 µM (inactive)
GI50 (HCT-15): > 100 µM
GI50 (MOLT-4): 12.9 µM (inactive)
GI50 (OVCAR-5): 22.9 µM (inactive)
GI50 (HT-29): 6.79 µM (inactive)
GI50 (786-0): 21.8 µM (inactive)
GI50 (HOP-92): 24.7 µM (inactive)
GI50 (RXF 393): 88.7 µM (inactive)
GI50 (SW-620): 12.1 µM (inactive)
GI50 (SK-MEL-28): 10.6 µM (inactive)
GI50 (UACC-62): 10.7 µM (inactive)
GI50 (NCI-H460): 8.69 µM (inactive)
GI50 (CCRF-CEM): 13.4 µM (inactive)
GI50 (T47D): 5.58 µM (inactive)
GI50 (MCF7): 9.16 µM (inactive)
GI50 (K562): 16.8 µM (inactive)
GI50 (MDA-MB-231): 12.6 µM (inactive)
GI50 (CAKI-1): 22.4 µM (inactive)
GI50 (PC-3): 15.2 µM (inactive)
GI50 (OVCAR-4): 9.04 µM (inactive)
GI50 (BT-549): 11.3 µM (inactive)
GI50 (COLO 205): 5.73 µM (inactive)
GI50 (UACC-257): 4.25 µM (inactive)
GI50 (HCT-116): 11.3 µM (inactive)
GI50 (OVCAR-3): 5.26 µM (inactive)
GI50 (Malme-3M): 11.2 µM (inactive)
GI50 (MDA-MB-435): 4.98 µM (inactive)
GI50 (U-251): 4.9 µM (inactive)
GI50 (SK-MEL-2): 17.1 µM (inactive)
GI50 (NCI-H522): 14.7 µM (inactive)
GI50 (DU-145): 27 µM (inactive)
GI50 (SF-539): 20.4 µM (inactive)
GI50 (HOP-62): 12.6 µM (inactive)
GI50 (SK-MEL-5): 1.28 µM (inactive)
GI50 (NCI-H226): 13.8 µM (inactive)
GI50 (KM12): 3.98 µM (inactive)
GI50 (SF-295): 24.9 µM (inactive)
GI50 (A549): 5.64 µM (inactive)
